The results in this text go back to PubChem BioAssay AID179 (DTP/NCI, 2004).

This test relates to CEM cells HIV-1 protection, formazan growth assay. Briefly: NCI AIDS Antiviral Assay. Particulars: for IC50: measured here: growth of uninfected CEM cells. Summed up:
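CEM (human) cells, HIV-1 infected vs uninfected, 5-point dosing, formazan growth read-out. Retest threshold 50% protection.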

Calls of active or inactive are those of the source.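 How the source made its calls: active means compounds giving half or more protection of infected cells from virus-caused growth loss, again on retest; inactive means the rest.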 Where only a bound is given, the exact number is not on record here.

For the molecule `NC(=O)C(=O)C(c1ccccc1)S(=O)(=O)Cc1ccccc1` (stereo not given), the EC50 – broadly, the midpoint of the concentration-response curve – was > 200 µM and the IC50 – broadly, the midpoint of a concentration-inhibition curve – is > 200 µM.

In the case of `COC1/C=C/OC2(C)Oc3c(C)c(O)c4c(O)c(c(/C=N/N5C(C)CN(Cc6ccccc6O)CC5C)c(O)c4c3C2=O)NC(=O)/C(C)=C\C=C\C(C)C(O)C(C)C(O)C(C)C(OC(C)=O)C1C` (stereo not given), the EC50 is > 200 µM and the IC50 amounted to 9.55 µM.

With `O=S1Cc2ccccc2CSS1` (stereo not given), the outcome was inactive.

`CC(=O)OCC1OC(n2c3c(c(-c4ccc(Cl)cc4)c(C#N)c2=S)CCCC3)C(OC(C)=O)C(OC(C)=O)C1OC(C)=O` (stereo not given): the EC50 was > 200 µM and the IC50 was 26.3 µM.

Regarding `CC(=O)N(c1ccccc1)[Si](C)(C)C`, the result was inactive.

On to `CC(=O)OCC1CCC(=C2C(=O)OC(C)(C)OC2=O)N1` (stereo not given), for which the EC50 is > 200 µM and the IC50 is > 200 µM.

For the molecule `CC(=O)OC1C2CCC1C1C2C2(Cl)C(Cl)=C(Cl)C1(Cl)C2(Cl)Cl` (stereo not given), the result was inactive.

Consider `CCOC(=O)C(=Cn1ccc(=O)[nH]c1=S)C(=O)OCC`, for which the EC50 was > 200 µM and the concentration for half-maximal inhibition (IC50) was > 200 µM.

On to `CC(C)CCC[C@@H](C)[C@H]1CC[C@H]2[C@@H]3CC[C@H]4C[C@@H](CCC=C(c5cc(Cl)c(OCc6ccccc6C(=O)O)c(C(=O)O)c5)c5cc(Cl)c(OCc6ccccc6C(=O)O)c(C(=O)O)c5)CC[C@]4(C)[C@H]3CC[C@]12C`, for which the EC50 is 67.6 µM and the IC50 is > 200 µM.

As for `C[P+]1(c2ccccc2)CCC(N)=C(C#N)C1` (stereo not given), the EC50 is > 1070 µM and the IC50 is > 1070 µM.

For `CCOC(=O)C1CN(C2CC2)CCC1=O` (stereo not given), the EC50 was > 200 µM and the IC50 was > 200 µM.

For `Cc1ccc(S(=O)C[C@@]2(C(F)F)NC(=O)NC2=O)cc1` (stereo not given in full), the EC50 is > 200 µM and the IC50 was found to be 178 µM.

`CCN1C(c2ccc(Cl)cc2)=NN2C(C)=CC(C)(C)N=C12`: the EC50 was > 85.1 µM and the IC50 turned out to be 60.3 µM.

As for `CCO/C=C(\C)CC1([N+](=O)[O-])C(=O)c2ccccc2C1=O`, the outcome was inactive.

`C/C(=N\NC(N)=S)c1ccc(C2CCCCC2)cc1`: the result was inactive.

With `Cc1cc2c(cc1Cl)SC(NNC1=NCCN1)=NS2(=O)=O`, the EC50 was > 200 µM and the IC50 stood at 115 µM.

Regarding `CC[C@H](O)[C@H](C)C=C1SCCCS1`, the EC50 was > 200 µM and the IC50 was > 200 µM.

On to `COc1nc(NC2OC(COC(C)=O)C(OC(C)=O)C(OC(C)=O)C2OC(C)=O)c(C(=O)CCl)c(=O)n1C` (stereo not given), for which the outcome was inactive.

With `O=c1[nH]c2ccccc2c(=O)c2ccccc12`, the EC50 is > 32.4 µM and the IC50 is > 32.4 µM.

Take `CCCCCCCCCC(=O)OCC1OC(n2cc(F)c(=O)[nH]c2=O)C(NC(=O)OCc2ccccc2)C(OC(=O)CCCCCCCCC)C1O` (stereo not given): the EC50 is > 9.77 µM and the IC50 was > 9.77 µM.

Turning to `C#CC1(O)C(CO)OC(n2ccc(=O)[nH]c2=O)C1O[Si](C)(C)C(C)(C)C` (stereo not given), the EC50 is > 200 µM and the IC50 worked out at 27.5 µM.

As to `CCOC(=O)/C(=C/c1ccc(OC)cc1)P(=O)(OCC)OCC`, the EC50 was > 380 µM and the IC50 came out at 20.4 µM.

On to `O=C(O)/C=C/c1ccc(O)c(O)c1`, for which the EC50 is > 1380 µM and the IC50 was 66.1 µM.

For `CCN(CC)CCN1C(=O)c2cccc3cc(OC)cc(c23)C1=O`, the EC50 was > 200 µM and the IC50 was 3.47 µM.

`C/C=C1\CC(C(=O)OCC)CCCCCCCCCCC1=O` (stereo not given): the EC50 is > 200 µM and the concentration for half-maximal inhibition (IC50) was found to be 8.51 µM.

As for `O=C(N/N=C\c1ccc([N+](=O)[O-])o1)c1ccncc1`, the EC50 is > 200 µM and the IC50 was 22.9 µM.

Consider `COC1C(OC(=O)c2ccc(C)[nH]2)C(O)C(Oc2ccc3c(O)c(NC(=O)c4ccc(O)c(CC=C(C)C)c4)c(=O)oc3c2Cl)OC1(C)C` (stereo not given), for which the EC50 was > 200 µM and the IC50 stood at 15.8 µM.

In the case of `Cc1c2ccncc2c(C)c2c1[nH]c1ccc(F)cc12`, the EC50 is > 200 µM and the IC50 is 0.437 µM.
